Consider 2 molecules from ChEMBL document CHEMBL1212897 (J Med Chem, 2010).

Activity calls are given as the source filed them. The rule behind the calls is not given here.

Series [1] can be described thus: Oral bioavailability in Sprague-Dawley rat at 2 mg/kg. In kind it is ADME, organism-based. The settings on record: in vivo.
Series [2] is described as follows: Oral bioavailability in Sprague-Dawley rat at 1 mg/kg. In kind it is ADME, organism-based. The conditions noted are these: in vivo.
Series [3] is described as follows: Clearance in Sprague-Dawley rat at 1 mg/kg, iv. Type of series: ADME, organism-based. Further details: dose 1 mg/kg, route intravenous. The conditions noted are these: in vivo.
Series [4] in a line: Volume of distribution at steady state in Sprague-Dawley rat at 1 mg/kg, iv. The settings on record: in vivo, read-out: Vdss. Further details: dose 1 mg/kg, route intravenous. In kind it is ADME, organism-based.
Series [5] can be described thus: Half life in Sprague-Dawley rat at 1 mg/kg, iv. The settings on record: in vivo. In kind it is ADME, organism-based. More on the design: dose 1 mg/kg, route intravenous.
The target of another series is T1, Estrogen receptor (Homo sapiens, UniProt P03372).
T1 sequence (P03372 whole entry): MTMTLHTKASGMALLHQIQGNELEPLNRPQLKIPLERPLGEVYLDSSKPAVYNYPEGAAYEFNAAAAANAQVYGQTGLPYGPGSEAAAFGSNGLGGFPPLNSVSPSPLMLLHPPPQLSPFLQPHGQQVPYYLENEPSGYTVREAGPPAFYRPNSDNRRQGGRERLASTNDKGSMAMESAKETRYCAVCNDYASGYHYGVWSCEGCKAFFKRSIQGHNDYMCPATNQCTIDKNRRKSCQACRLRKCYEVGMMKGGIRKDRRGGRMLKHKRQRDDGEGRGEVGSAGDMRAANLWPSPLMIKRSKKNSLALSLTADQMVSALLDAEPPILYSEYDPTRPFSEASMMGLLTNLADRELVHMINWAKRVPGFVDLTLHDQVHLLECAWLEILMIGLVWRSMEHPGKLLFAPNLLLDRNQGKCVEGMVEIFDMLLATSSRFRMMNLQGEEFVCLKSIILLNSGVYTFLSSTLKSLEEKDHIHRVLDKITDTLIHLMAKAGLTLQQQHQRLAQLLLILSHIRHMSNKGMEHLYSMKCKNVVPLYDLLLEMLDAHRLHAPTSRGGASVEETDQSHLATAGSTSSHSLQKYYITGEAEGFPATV
Nature of the series: Antagonist activity at estrogen receptor. Type of series: functional.

Series [6] can be described thus: Volume of distribution at steady state in Sprague-Dawley rat at 2 mg/kg, iv. In kind it is ADME, organism-based. More on the design: dose 2 mg/kg, route intravenous. The conditions noted are these: in vivo, read-out: Vdss.
A short description of series [7]: Clearance in Sprague-Dawley rat at 2 mg/kg, iv. In kind it is ADME, organism-based. Further details: dose 2 mg/kg, route intravenous. The settings on record: in vivo.
A short description of series [8]: Half life in Sprague-Dawley rat at 2 mg/kg, iv. In kind it is ADME, organism-based. The settings on record: in vivo. More on the design: dose 2 mg/kg, route intravenous.
In series [9] the test system is Rattus norvegicus. Nature of the series: Protection against high salt-induced kidney injury in Dahl salt sensitive hypertensive rat assessed as decrease in glomerulosclerosis at 10 mg/kg, po relative to eplerenone. Further details: dose 10 mg/kg. Type of series: functional, organism-based.
The test system of series [10] is Rattus norvegicus. The experiment in a line: Effect on renal function in rat assessed as reduction in serum potassium level at 10 mg/kg, po. Type of series: functional, organism-based. Further details: dose 10 mg/kg.
Series [11] relates to Rattus norvegicus. The experiment in a line: Protection against high salt-induced kidney injury in Dahl salt sensitive hypertensive rat assessed as decrease in urinary albumin level at 10 mg/kg, po relative to eplerenone. Further details: scale not given: the % may be the effect or the level left. Type of series: functional.
Series [12] concerns Rattus norvegicus. Nature of the series: Protection against high salt-induced kidney injury in Dahl salt sensitive hypertensive rat assessed as decrease in urinary albumin level at 40 to 100 mg/kg, po relative to eplerenone. In kind it is functional. Further details: scale not given: the % may be the effect or the level left. The conditions noted are these: dose mg/kg 40-100.

The subject of series [13] is Rattus norvegicus. The experiment in a line: Antihypertensive activity in Dahl salt sensitive hypertensive rat assessed as reduction in systolic blood pressure at 40 to 100 mg/kg, po bid for 21 days (RVb = 10 to 50 mmHg). In kind it is functional, Artery. The conditions noted are these: dose mg/kg 40-100.

As usually defined, the bioavailability is dose-corrected exposure relative to a reference, in per cent. As a reminder, the clearance is the rate of elimination divided by the concentration. What is called half-life is the time in which the quantity being followed falls by half. The IC50 is the concentration that inhibits the measured activity by half. Take `CCOc1cc(C2=NN(c3ccc(C#N)c(Cl)c3)[C@@H](C3CCCC3)C2)ccc1C(=O)O`: the bioavailability in series [1] stood at 83%; in series [2], 50%. For the same molecule, the results for the clearance in series [3] and in [7] were 0.552 L/h/kg and 0.33 L/h/kg, respectively. The Vd in [4] stood at 2.3 L/kg; in series [6], 0.6 L/kg. Moreover, the values for the half-life in [5] and in series [8] were 2.5 h and 1.3 h, respectively. For the same molecule, on Estrogen receptor, the IC50 is > 4.96 µM.

In series [1], `N#Cc1ccc(N2N=C3c4ccc(C(=O)O)cc4CC[C@@H]3[C@@H]2C2CCCC2)cc1Cl` [PF-03882845] had a bioavailability of 86%. Further, the outcome with Rattus norvegicus [9] and in the series on Rattus norvegicus [10] was Active. Besides, the Activity was 18% with Rattus norvegicus [11], 50% with Rattus norvegicus [12] and <5 mmHg in the series on Rattus norvegicus [13]. Further, the Vd in [6] was 1.4 L/kg. In addition, in series [7], the clearance was determined as 0.588 L/h/kg. Besides, the half-life in [8] is 1.7 h.
